≈ marks a conversion by molar mass, not a printed value.
Tests used:
[1] = system: Aspergillus fumigatus (ATCC MYA-4609/AF293/CBS 101355); experiment: Measurement of minimum inhibitory concentration (MIC), AF293; type: cell-based; details: CBS101355; Aspergillus fumigatus AF293, 35° C., 48 hours, RPMI1640; read-out: AF293: MIC
Method in brief: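 Broth microdilution in RPMI1640 buffered with 0.165M MOPS, pH 7.0, spore inoculum 0.2-2.5×10^4 spores/mL from SDA cultures. Twofold compound dilutions in DMSO, 1% of final volume. Incubated 35 °C for 48 h; growth scored visually with magnifier and OD530 read.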

[2] = system: Aspergillus flavus (ATCC 204304); experiment: Measurement of minimum inhibitory concentration (MIC), ATCC 204304; type: cell-based; details: ATCC204304; Aspergillus flavus ATCC 204304, 35° C., 48 hours
Description: New streaks are made with glycerol stock solution of the strains of Aspergillus fumigatus (ATCC MYA-4609/AF 293/CBS 101355) on Sabouraud's dextrose agar (SDA), incubate at 35° C. and a humidity of 40-70% for 72 hours. Other strains are processed as the same as AF293.
RPMI1640: one packet of RPMI1640 powder is dissolved in 1 L purified water and mixed well, add 0.165M MOPS, adjust the pH to 7.0, sterilize by filtration with 0.22 um membrane, and store at 4° C. for no more than 3 months.
Physiological saline: weigh 9 g of sodium chloride powder and dissolve in 1 L of purified water, and mixed well. Sterilize at 121° C. for 30 min, store at room temperature (RT) for no more than 1 week.
Dissolve the test compound and stock solution of one control compound with DMSO and obtain solutions at a concentration of 12.8 mg/mL
The maximum concentration of each compound is 0.8 mg/mL (e.g., 150 μL of dimethyl sulfoxide+10 uL of 12.8 mg/mL compound/control). Column 1 is filled with 40 μL of compound and columns 2 to 11 with 20 μL of dimethyl sulfoxide. Transfer 20 μL of compound from column 1 to column 2 to dilute the concentration. Repeat the above steps up to column 11 to give 2× serial dilutions.
2 μL of the above 2× serial dilutions are injected into each hole of the corresponding test plate using a multichannel pipette.
Drop 5 ml of saline on the Aspergillus fumigatus SDA plate. The spores were carefully wiped off from the surface of the plate with an L-shaped coating rod. Then the suspension is transferred into a sterile tube. After shaking, let the tube stand for 5 to 10 minutes. Count the number of spores in the upper suspension with a hemocytometer and check the purity. Adjust the inoculum concentration to 0.2-2.5×10^4 spores/mL.
Inject 198 μL of diluted inoculum into each holes of the corresponding test plate using a multichannel pipette.
Incubate at 35° C. for 48 hours.
To facilitate scoring of the presence or absence of growth on the wall, a magnifying glass is used. The tested 96-well microplates were photographed and the optical density at 530 nm is read with an enzyme marker (Tecan Spark).

[3] = system: Aspergillus fumigatus ATCCMYA-4690 (AF293); experiment: Survival rate experiment I of mouse bloodstream infection model with Aspergillus fumigatus; type: in vivo; details: immunosuppressed male CD-1 mouse; for day 7 survival rate: 3 mg/kg orally twice daily for 6 days, started 24 hours after infection; for survival time of mouses: 3 mg/kg orally twice daily
Description: Test Case 5: Survival Rate Experiment I of Mouse Bloodstream Infection Model with Aspergillus fumigatus • Experimental animals: male CD-1 mouse, 6-8 weeks old, 10 animals per group. • Induction of immunosuppression: the day of infection is defined as day 0, and mouses are injected intraperitoneally with corresponding doses of cyclophosphamide on day −4 (150 mg/kg), day −1 (100 mg/kg) and day 2 (100 mg/kg). • Microbial pathogen: Aspergillus fumigatus ATCCMYA-4690 (AF293). • Collection conditions of inoculum: culture on SDA culture plates, incubate at 25° C. for at least 7 days, collect with PBS+0.1% Tween 20, and count microscopically; • Inoculation level, route and volume: 3.60E+05 CFU/mouse, tail vein injection, injection volume of 100 μL/mouse; • Treatment: Treatment is started 24 hours after infection, and test compounds are dissolved in PEG400 (0.3 mg/mL), and used for administration orally to mouses at 3 mg/kg, twice daily for 6 days. The administrated mouses are observed for 8 hours.

[4] = system: Aspergillus fumigatus (ATCC-204305); experiment: Measurement of minimum inhibitory concentration (MIC), ATCC 204305; type: cell-based; details: ATCC204305; Aspergillus fumigatus ATCC 204305, 35° C., 48 hours
Description: New streaks are made with glycerol stock solution of the strains of Aspergillus [NT] MYA-4609/AF 293/CBS 101355) on Sabouraud's dextrose agar (SDA), incubate at 35° C. and a humidity of 40-70% for 72 hours. Other strains are processed as the same as AF293. RPMI1640: one packet of RPMI1640 powder is dissolved in 1 L purified water and mixed well, add 0.165M MOPS, adjust the pH to 7.0, sterilize by filtration with 0.22 um membrane, and store at 4° C. for no more than 3 months. Physiological saline: weigh 9 g of sodium chloride powder and dissolve in 1 L of purified water, and mixed well. […] Dissolve the test compound and stock solution of one control compound with DMSO and obtain solutions at a concentration of 12.8 mg/mL The maximum concentration of each compound is 0.8 mg/mL (e.g., 150 μL of dimethyl sulfoxide+10 uL of 12.8 mg/mL compound/control). […] Repeat the above steps up to column 11 to give 2× serial dilutions. 2 μL of the above 2× serial dilutions are injected into each hole of the corresponding test plate using a multichannel pipette. Drop 5 ml of saline on the Aspergillus fumigatus SDA plate. The spores were carefully wiped off from the surface of the plate with an L-shaped coating rod. Then the suspension is transferred into a sterile tube. After shaking, let the tube stand for 5 to 10 minutes. Count the number of spores in the upper suspension with a hemocytometer and check the purity. Adjust the inoculum concentration to 0.2-2.5×10^4 spores/mL. Inject 198 μL of diluted inoculum into each holes of the corresponding test plate using a multichannel pipette. Incubate at 35° C. for 48 hours. […] To facilitate scoring of the presence or absence of growth on the wall, a magnifying glass is used. The tested 96-well microplates were photographed and the optical density at 530 nm is read with an enzyme marker (Tecan Spark).

Compound | MIC [1] [µg/mL] | MIC [2] [µg/mL] | day 7 survival rate [3] [%] | MIC [4] [µg/mL] | survival time of mouses [3]
Cc1cc(-c2ccccc2)c(C(=O)C(=O)Nc2cc(F)c3c(c2)OC[C@H]2CN(c4ncc(F)cn4)CCN32)n1C [Example 5] | 0.016 (≈ 0.0294 µM) | 0.004 (≈ 0.00735 µM) | 0 | 0.016 (≈ 0.0294 µM) | 
Cc1cc(-c2ccccc2)c(C(=O)C(=O)Nc2ccc3c(c2)C[C@H]2CN(c4ncc(F)cn4)CCN32)n1C [Example 33, (S)-2-(1,5-dimethyl-3-phenyl-1H-pyrrol-2-yl)-N-(2-(5-fluoropyrimidin-2-yl)-1,2,3,4,10,10a-hexahydropyrazino[1,2-a]indol-8-yl)-2-oxoacetamide] | 0.004 (≈ 0.00783 µM) | 0.008 (≈ 0.0157 µM) | 40 | 0.016 (≈ 0.0313 µM) | prolong the survival time
Cc1cc(-c2ccccc2)c(C(=O)C(=O)Nc2ccc(N3CCN(c4ncc(F)cn4)CC3)cc2)n1C [Example F901318, reference compound] | 0.03 (≈ 0.0602 µM) | 0.004 (≈ 0.00802 µM) | 0 | 0.016 (≈ 0.0321 µM) | prolong the survival time

From patent US20240327423A1, “A SERIES OF PYRROLE DERIVATIVES AND THEIR PREPARATION METHOD AND THERAPEUTIC USE” (SHENZHEN SUNGENING BIO-MEDICAL CO., LTD, priority 2020, published 2024)
